Tested on: enzyme responsible for the conversion of angiotension I into angiotension II
Assay: Inhibition of the angiotensin I pressor response in dogs after intravenous administration (arterial pressure recorded)
Assay type: in vivo
Conditions: dog
Experimental: The compounds of the invention are tested in […] dogs, maintained in forced respiration by an apparatus.
The aorta is catheterized by way of the femoral arteria, and the arterial pressure is registered by an appropriate instrument.
Angiotension I and II are administered to the animals intravenously at the dose of 0.3 γ/Kg. After registering of the dose/activity relation curve, the compounds of the invention are administered also by the intravenous route and modification of the blood pressure is also registered.
The results obtained by the new compounds are summarized in the table hereinafter and are expressed in percentage of inhibition of the enzyme activity. The numbers in the brackets indicate the dose of the active enantiomer contained in the administered doses.

[1] = dose 20 mg/Kg IV, time 15 minutes
[2] = dose 20 mg/Kg IV, time 30 minutes
[3] = dose 20 mg/Kg IV, time 1 h 30 min.
[4] = dose 10 (2,5) mg/Kg IV, time 15 minutes
[5] = dose 10 (2,5) mg/Kg IV, time 30 minutes
[6] = dose 10 (2,5) mg/Kg IV, time 1 h 30 min.
[7] = dose 10 (2,5) mg/Kg IV, time 1 hour
[8] = dose 10 (2,5) mg/Kg IV, time 2 hours
[9] = dose 10 (2,5) mg/Kg IV, time 3 hours

Question: `CC(CC(=O)O)C(=O)N1Cc2ccccc2C[C@H]1C(=O)O` (mixture of isomers) [Example 9, 2-[3-carboxy 2-(RS)methylpropionyl] 3-(S) carboxy 1,2,3,4-tetrahydroisoquinoline] was tested. Which “Percentage of inhibition (of the enzyme activity)” value (“Percentage of inhibition” below) [1] did it give?
Answer: Its value is 38%.

Question: What about the “Percentage of inhibition” value [2] of the same molecule?
Answer: Its value is 35%.

Question: What about the “Percentage of inhibition” value [3] of the same molecule?
Answer: Its value is 25%.

Question: And the “Percentage of inhibition” value (dose 20 mg/Kg IV, time 1 hour)?
Answer: Its value is 25%.

Question: And the “Percentage of inhibition” value (dose 20 mg/Kg IV, time 2 hours)?
Answer: Its value is 48%.

Question: What about the “Percentage of inhibition” value (dose 20 mg/Kg IV, time 3 hours) of the same molecule?
Answer: Its value is 25%.

Question: Which “Percentage of inhibition” value (dose 5 (1,25) mg/Kg IV, time 15 minutes) does the source give for `C[C@@H](CS)C(=O)N1C2CCCCC2C[C@@H]1C(=O)O` (mixture of isomers) [Example 5, N-[3-mercapto 2-(RS)methylpropionyl] 2-(RS) carboxy perhydroindole] here?
Answer: The value was 100%.

Question: What about the “Percentage of inhibition” value (dose 5 (1,25) mg/Kg IV, time 30 minutes) of the same molecule?
Answer: Its value is 100%.

Question: And the “Percentage of inhibition” value (dose 5 (1,25) mg/Kg IV, time 1 h 30 min.)?
Answer: The value was 90%.

Question: What about the “Percentage of inhibition” value (dose 5 (1,25) mg/Kg IV, time 1 hour) of the same molecule?
Answer: Its value is 100%.

Question: What about the “Percentage of inhibition” value (dose 5 (1,25) mg/Kg IV, time 2 hours) of the same molecule?
Answer: Its value is 71%.

Question: What about the “Percentage of inhibition” value (dose 5 (1,25) mg/Kg IV, time 3 hours) of the same molecule?
Answer: The value was 54%.

Question: And the “Percentage of inhibition” value [4]?
Answer: The value was 100%.

Question: And the “Percentage of inhibition” value [5]?
Answer: The value was 92%.

Question: What about the “Percentage of inhibition” value [6] of the same molecule?
Answer: Its value is 92%.

Question: What about the “Percentage of inhibition” value [7] of the same molecule?
Answer: Its value is 92%.

Question: What about the “Percentage of inhibition” value [8] of the same molecule?
Answer: The value was 92%.

Question: And the “Percentage of inhibition” value [9]?
Answer: The value was 86%.

Question: `CC(CS)C(=O)N1Cc2ccsc2CC1C(=O)O` (racemic) [Example 6] was tested. Which “Percentage of inhibition” value [1] did it give?
Answer: Its value is 47%.

Question: And the “Percentage of inhibition” value [2]?
Answer: Its value is 51%.

Question: What about the “Percentage of inhibition” value [3] of the same molecule?
Answer: The value was 30%.

Question: And the “Percentage of inhibition” value (dose 20 mg/Kg IV, time 1 hour)?
Answer: The value was 37%.

Question: What about the “Percentage of inhibition” value (dose 20 mg/Kg IV, time 2 hours) of the same molecule?
Answer: The value was 26%.

Question: And the “Percentage of inhibition” value (dose 20 mg/Kg IV, time 3 hours)?
Answer: The value was 23%.

Question: Which “Percentage of inhibition” value [4] does the source give for `C[C@@H](CS)C(=O)N1CC2CCCCC2[C@@H]1C(=O)O` (mixture of isomers) [Example 7, N-[3-mercapto 2-(RS)methylpropionyl] 1-(RS) carboxy perhydroisoindole] here?
Answer: The value was 83%.

Question: What about the “Percentage of inhibition” value [5] of the same molecule?
Answer: The value was 64%.

Question: And the “Percentage of inhibition” value [6]?
Answer: The value was 48%.

Question: And the “Percentage of inhibition” value [7]?
Answer: Its value is 62%.

Question: And the “Percentage of inhibition” value [8]?
Answer: Its value is 40%.

Question: What about the “Percentage of inhibition” value [9] of the same molecule?
Answer: The value was 26%.

Question: Which results are given for `CC(CS)C(=O)N1C(C(=O)O)CCC2CCCCC21` (racemic) [Example 8, 1-[3 mercapto 2-(RS)methylpropionyl] 2-(RS) carboxy perhydroquinoline.]?
Answer: Percentage of inhibition (of the enzyme activity) [4]: 72%; Percentage of inhibition (of the enzyme activity) [5]: 69%; Percentage of inhibition (of the enzyme activity) [6]: 50%; Percentage of inhibition (of the enzyme activity) [7]: 64%; Percentage of inhibition (of the enzyme activity) [8]: 36%; Percentage of inhibition (of the enzyme activity) [9]: 31%

Question: `CC(CS)C(=O)N1CC2CCCCC2CC1C(=O)O` (stereo not drawn) [Example 1, 2-(3-mercapto-2-(RS)-methylpropionyl)-cis-perhydroisoquinoline-3-carboxylicacid] was tested. Which “Percentage of inhibition” value [1] did it give?
Answer: Its value is 100%.

Question: What about the “Percentage of inhibition” value [2] of the same molecule?
Answer: Its value is 100%.

Question: What about the “Percentage of inhibition” value [3] of the same molecule?
Answer: The value was 76%.

Question: And the “Percentage of inhibition” value (dose 20 mg/Kg IV, time 1 hour)?
Answer: Its value is 90%.

Question: And the “Percentage of inhibition” value (dose 20 mg/Kg IV, time 2 hours)?
Answer: Its value is 70%.

Question: What about the “Percentage of inhibition” value (dose 20 mg/Kg IV, time 3 hours) of the same molecule?
Answer: The value was 42%.

Reference: patent US4404206A, “Substituted iminoacid derivatives, process for preparing them and their use as enzyme inhibitors” (Science Union et Cie, priority 1979, dated 1983)
